Measurements: US7700637B2, “Organic compounds” (Novartis AG, priority 2003, dated 2010)

Columns and labels:
[1] = biological target: T1, PPARα receptor (GST-hPPARα LBD) (Homo sapiens, UniProt Q07869); test: PPARα receptor functional binding assay (CARLA, TR-FRET); assay type: biochemical; settings: SRC-1 peptide recruitment
T1 construct: made in house; host or cells: E. coli BL21 (DE3)
T1 sequence (Q07869 167-468): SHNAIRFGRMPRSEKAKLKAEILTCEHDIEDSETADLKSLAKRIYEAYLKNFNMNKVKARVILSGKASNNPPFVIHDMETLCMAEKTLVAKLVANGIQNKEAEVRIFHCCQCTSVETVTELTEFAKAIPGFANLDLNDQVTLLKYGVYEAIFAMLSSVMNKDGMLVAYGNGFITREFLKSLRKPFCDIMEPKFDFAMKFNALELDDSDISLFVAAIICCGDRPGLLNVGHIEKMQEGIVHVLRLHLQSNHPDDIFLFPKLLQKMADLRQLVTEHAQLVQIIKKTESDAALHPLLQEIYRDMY
Description: (§1) The in vitro functional binding to the PPARα, PPARδ and PPARγ receptors is determined as follows:
(§2) The functional binding assays for the PPARα, PPARδ and PPARγ receptors are a variation of the coactivator-dependent receptor ligand assay (CARLA) (Krey et al., Molecular Endocrinology 1997, 11, 779-791). The present CARLA assays use a TR-FRET detection method previously reviewed (Hemmila, J. Biomol. Screening 1999, 4, 303-307; Mathis, J. Biomol. Screening 1999, 4, 309-313). All assays included 3 nM of the glutathione-S-transferase (GST) fusion proteins of either the hPPARα ligand binding domain (LBD) (amino acids 167-468) (GST-hPPARα LBD), GST-hPPARδ LBD (amino acids 139-442) or GST-hPPARγ LBD (amino acids 175-476); 3 nM Eu-labelled anti-GST antibody (Wallac); 30 nM biotinylated steroid receptor coactivator-1 (SRC-1) peptide (an N-terminal biotinylated peptide, […], derived from amino acids 676-700 of SRC-1); and 10 nM streptavidin-labelled allophycocyanin (APC; Prozyme). […] This brings the Eu-labelled anti-GST antibody and the strepavidin-labelled APC in close proximity, thereby facilitating fluorescence energy transfer. […] After mixing all components, the reaction mixture stands for 3 h at RT before reading the TR-FRET signal on a Wallac Victor 2 plate reader (measuring the ratio of signals at 665 nm and 620 nm). […]

[2] = biological target: T2, PPARγ receptor (GST-hPPARγ LBD) (Homo sapiens, UniProt P37231); test: PPARγ receptor functional binding assay (CARLA, TR-FRET); assay type: biochemical; settings: SRC-1 peptide recruitment
T2 construct: GST-hPPARγ LBD (amino acids 175-476); made in house; host or cells: E. coli BL21 (DE3)
T2 sequence (P37231 175-476 isoform P37231-2): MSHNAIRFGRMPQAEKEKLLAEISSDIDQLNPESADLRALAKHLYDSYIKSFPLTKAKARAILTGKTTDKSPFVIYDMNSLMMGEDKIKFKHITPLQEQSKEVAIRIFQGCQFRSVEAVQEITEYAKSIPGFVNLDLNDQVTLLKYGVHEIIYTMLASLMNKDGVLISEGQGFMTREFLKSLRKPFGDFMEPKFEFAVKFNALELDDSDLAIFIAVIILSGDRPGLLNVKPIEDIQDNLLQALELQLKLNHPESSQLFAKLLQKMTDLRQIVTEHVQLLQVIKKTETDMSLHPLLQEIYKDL
Description: as §1, §2

[3] = biological target: T3, PPARδ receptor (GST-hPPARδ LBD) (Homo sapiens, UniProt Q03181); test: PPARδ receptor functional binding assay (CARLA, TR-FRET); assay type: biochemical; settings: SRC-1 peptide recruitment
T3 construct: GST-hPPARδ LBD (amino acids 139-442); made in house; host or cells: E. coli BL21 (DE3)
T3 sequence (Q03181 139-441 limits assumed): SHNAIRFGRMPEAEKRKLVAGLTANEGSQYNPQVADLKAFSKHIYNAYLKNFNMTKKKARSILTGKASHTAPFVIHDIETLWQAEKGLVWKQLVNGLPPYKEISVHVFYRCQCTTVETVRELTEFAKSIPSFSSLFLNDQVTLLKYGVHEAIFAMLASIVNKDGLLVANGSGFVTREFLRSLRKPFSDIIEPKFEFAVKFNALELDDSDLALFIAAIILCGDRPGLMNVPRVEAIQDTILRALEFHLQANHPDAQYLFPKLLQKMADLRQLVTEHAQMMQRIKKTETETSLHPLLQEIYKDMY
T3 sequence (Q15788 676-700 partner limits assumed): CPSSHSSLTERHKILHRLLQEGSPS
Description: as §1, §2

C57BL ob/ob mice = test: glucose and insulin lowering activity in vivo in ob/ob mice; settings: daily dose of about 30 mg/kg p.o. in the ob/ob mice
Description: The glucose and insulin lowering activity in vivo can be evaluated as follows:
Adult male C57BL ob/ob mice (Jackson Lab, Bar Harbor, Me.) at the age of 11 weeks are housed six per cage in a reversed light cycle room (light on from 6:00 p.m. to 6:00 a.m.) and given access to Purina rodent chow and water ad libitum. On day 1 tail blood samples are taken at 8:00 am and plasma glucose levels are determined. The animals are randomly assigned to the control and compound groups. The means of plasma glucose values of the groups were matched. Animals are then orally dosed with vehicle (0.5% carboxymethyl-cellulose with 0.2% Tween-80) or compounds (at 30 mg/kg) in vehicle. The mice are dosed daily for a total of 3 days. On day 4 basal blood samples are taken. The plasma samples are analyzed for glucose concentrations using a YS12700 Dual Channel Biochemistry Analyzer (Yellow Springs Instrument Co., Yellow Springs, Ohio) and insulin concentrations using an ELISA assay.

| Compound | melting point [°C] | other results |
| --- | --- | --- |
| Cc1cccc(NS(=O)(=O)c2ccc(OCc3nc(-c4ccccc4)oc3C)cc2)c1C(=O)O [Example 1, 2-Methyl-6-[4-(5-methyl-2-phenyl-oxazol-4-ylmethoxy)-benzenesulfonylamino]-benzoic acid] | 167 to 170 | EC50 [1]: ~8 nM; EC50 [2]: ~5 nM; EC50 [3]: ~3.5 µM; serum glucose levels (C57BL ob/ob mice): significantly lowers; serum insulin levels (C57BL ob/ob mice): significantly lowers |
| Cc1oc(-c2ccccc2)nc1CCOc1ccc(S(=O)(=O)Nc2cc(Cl)ccc2C(=O)O)cc1 [Example 2, 4-Chloro-2-{4-[2-(5-methyl-2-phenyl-oxazol-4-yl)-ethoxy]-benzenesulfonylamino}-benzoic acid] | 223 to 225 | – |
| Cc1oc(-c2ccccc2)nc1CSc1ccc(S(=O)(=O)Nc2ccccc2C(=O)O)cc1 [Example 3, 2-[4-(5-Methyl-2-phenyl-oxazol-4-ylmethylsulfanyl)-benzenesulfonylamino]-benzoic acid] | 182 to 184 | – |
| O=C(NCCc1ccc(F)cc1)c1ccc(S(=O)(=O)Nc2ccccc2C(=O)O)cc1 [Example 7, 2-{4-[2-(4-Fluoro-phenyl)-ethylcarbamoyl]-benzenesulfonylamino}-benzoic acid] | 85 to 86 | – |
| CCOc1ccc(CC(=O)Nc2ccc(S(=O)(=O)Nc3ccccc3C(=O)O)cc2)cc1 [Example 9, 2-{4-[2-(4-Ethoxy-phenyl)-acetylamino]-benzenesulfonylamino}-benzoic acid] | 241 to 242 | – |
| COc1ccc(C(=O)O)c(OCc2ccc(OCCc3nc(-c4ccccc4)oc3C)cc2)c1 [Example 11, 4-Methoxy-2-{4-[2-(5-methyl-2-phenyl-oxazol-4-yl)-ethoxy]-benzyloxy}-benzoic acid] | 113 to 115 | – |
| Cc1oc(-c2ccccc2)nc1CCOc1ccc(COc2cc3ccccc3cc2C(=O)O)cc1 [Example 14, 3-{4-[2-(5-Methyl-2-phenyl-oxazol-4-yl)-ethoxy]-benzyloxy}-naphthalene-2-carboxylic acid] | 135 to 137 | – |
| CCCOc1ccc(C(=O)O)c(OCc2ccc(OCCc3nc(-c4ccccc4)oc3C)cc2)c1 [Example 15, 2-{4-[2-(5-Methyl-2-phenyl-oxazol-4-yl)-ethoxy]-benzyloxy}-4-propoxy-benzoic acid] | 108 to 109 | – |
| Cc1oc(-c2ccccc2)nc1COc1cccc(COc2cc(Cl)ccc2C(=O)O)c1 [Example 17, 4-Chloro-2-[3-(5-methyl-2-phenyl-oxazol-4-ylmethoxy)-benzyloxy]-benzoic acid] | 168 | – |
| Cc1oc(-c2ccccc2)nc1COCc1cccc(COc2cc(Cl)ccc2C(=O)O)c1 [Example 18, 4-Chloro-2-[3-(5-methyl-2-phenyl-oxazol-4-ylmethoxymethyl)-benzyloxy]-benzoic acid] | 137 | – |
